According to patent US20250195530A1, “POLQ INHIBITORS” (ASTRAZENECA AB, priority 2022, published 2025):
Where two headings read alike, the source gives them in different places.

Tested on: DLD-1 BRCA2−/− cells
Assay: Homologous recombination synthetic lethal inhibition of proliferation, DLD-1 BRCA2-/- (Cell Titre Glo 3D)
Format: cell-based
Conditions: for IC50: Homo sapiens
Description: This assay identifies anti-proliferative effects of POLQ compounds in the homologous recombination deficient colorectal cell line DLD-1 BRCA2−/− over 8-9 population doublings (7 days for DLD-1 and 12 days for DLD-1 BRCA2−/−). DLD1 BRCA2 wt are used as a control to detect cell toxic effects not specific to homologous recombination deficiency.
DLD-1 BRCA2−/− and DLD-1 cells were kept in continuous culture in Assay Medium (RPMI 1640 phenol red free (Sigma R7509) containing 1% GlutaMAX (Gibco 35050) and 10% Foetal Bovine Serum (Gibco 10270-106)). On the day of the assay cells in culture of ˜80-90% confluent were used. Cell monolayers were washed with 10 mL PBS, then removed and added 2 mL TrypLE Express (Gibco 12604). The cells with TrypLE Express were incubated for 5 minutes in cell culture incubator and then the detached cells resuspend in 15 mL Assay Medium. Cells were counted using a ViCell and the cell images were monitored for clumps of cells, ideally they should be single or <3 cell clusters. The cells were diluted to 3,000 cells/mL of DLD-1 BRCA2−/− and 1,500 cells/mL of DLD-1 in Assay Medium and 100 μL added per well of transparent bottomed, black, tissue culture-treated 96-well plates (CoStar, No. 3904) Assay Ready Plates. The Assay Ready Plates contain a 10 point 10 μM to 0.51 nM dose range with three-fold dilutions in DMSO with a final volume of 100 nL. The plates were incubated at 37° C. with 5% C02 for 6 days. On day 6, 100 μL/well of Assay Medium was added to duplicate Assay Ready Plates. 90 μL of culture medium was removed from the cell plates and replenished with the Assay Media and compounds from the duplicate Assay Ready Plates using the Bravo. The plates were further incubated at 37° C. with 5% CO2. On day 7 the plates containing DLD-1 and Cell Titre Glo 3D (Promega G9683) were equilibrated to room temperature, then 60 μL of Cell Titre Glo 3D was added per well and incubated on a shaking platform for 30 min. Plates were read on the Envision measuring luminescence for 1 second per well. On day 12 the plates containing DLD-1 BRCA2−/− cells and Cell Titre Glo 3D (Promega G9683) were equilibrated to room temperature, then 60 μL Cell Titre Glo 3D added per well and incubated on a shaking platform for 30 min. Plates were read on the Envision measuring luminescence for 1 second per well. The data was exported into a suitable software package (such as Genedata) to perform curve fitting analysis. Inhibition of cell proliferation was expressed as an IC5o value and was determined by calculation of the concentration of compound that was required to give a 50% reduction of the average maximum Total Intensity signal.

[1] = DLD-1, proliferation, luminescence, taken as DLD-1 BRCA2-/-, read-out: POLQ PD Prolif Lumin (converted)
[2] = DLD-1, first proliferation column (c5), DLD-1 BRCA2-/-, read-out: POLQ PD Prolif Lumin (converted)
[3] = DLD-1, first proliferation column, DLD-1 BRCA2-/-, read-out: POLQ PD Prolif Lumin (converted)
[4] = DLD-1, 288 h, DLD-1 BRCA2−/− cells, 12 days, read-out: POLQ PD Prolif Lumin BRCA2 −/− mean pIC50 (converted)

## CC(CCOc1ccc(-c2nc3c(OC4(C)CC4)ncnc3n2Cc2cccc(C(F)(F)F)c2)c(Cl)c1)C(=O)O (single isomer, unassigned) [Example T396, 4-(3-chloro-4-(6-(1-methylcyclopropoxy)-9-(3-(trifluoromethyl)benzyl)-9H-purin-8-yl)phenoxy)-2-methylbutanoic acid]
[1]
  IC50: 251 nM

## CC(CCOc1ccc(-c2nc3c(OC4(C)CC4)ncnc3n2Cc2cccc(C(F)F)c2)c(Cl)c1)C(=O)O (single isomer, unassigned) [Example T412, 4-(3-chloro-4-(9-(3-(difluoromethyl)benzyl)-6-(1-methylcyclopropoxy)-9H-purin-8-yl)phenoxy)-2-methylbutanoic acid]
[1]
  IC50: 251 nM

## CC(CCOc1ccc(-c2nc3c(OC4(C)CC4)ncnc3n2Cc2ccccc2C(F)F)c(Cl)c1)C(=O)O (single isomer, unassigned) [Example T414, 4-(3-chloro-4-(9-(2-(difluoromethyl)benzyl)-6-(1-methylcyclopropoxy)-9H-purin-8-yl)phenoxy)-2-methylbutanoic acid]
[1]
  IC50: 1580 nM

## CC(CCCOc1ccc(-c2nc3c(OC4(C)CC4)ncnc3n2Cc2cccc(Cl)c2)c(Cl)c1)C(=O)O (single isomer, unassigned) [Example T438, 5-(3-chloro-4-(9-(3-chlorobenzyl)-6-(1-methylcyclopropoxy)-9H-purin-8-yl)phenoxy)-2-methylpentanoic acid]
[1]
  IC50: 126 nM

## CC(CCCOc1cccc(-c2nc3c(OC4(C)CC4)ncnc3n2Cc2cccc(Cl)c2)c1Cl)C(=O)O (single isomer, unassigned) [Example T443, 5-(2-chloro-3-(9-(3-chlorobenzyl)-6-(1-methylcyclopropoxy)-9H-purin-8-yl)phenoxy)-2-methylpentanoic acid]
[1]
  IC50: 79.4 nM

## COc1cc(Cl)cc(Cn2c(-c3ccc(OCCC(C)C(=O)O)cc3Cl)nc3c(OC4(C)CC4)ncnc32)c1 (single isomer, unassigned) [Example T446, 4-(3-chloro-4-(9-(3-chloro-5-methoxybenzyl)-6-(1-methylcyclopropoxy)-9H-purin-8-yl)phenoxy)-2-methylbutanoic acid]
[1]
  IC50: 316 nM

## COc1cccc(Cn2c(-c3ccc(OCCC(C)C(=O)O)cc3Cl)nc3c(OC4(C)CC4)ncnc32)c1 (single isomer, unassigned) [Example T455, 4-(3-chloro-4-(9-(3-methoxybenzyl)-6-(1-methylcyclopropoxy)-9H-purin-8-yl)phenoxy)-2-methylbutanoic acid]
[1]
  IC50: 1580 nM

## Cc1c(Cn2c(-c3ccc(OCCC(C)C(=O)O)cc3Cl)nc3c(OC4(C)CC4)ncnc32)cccc1C(F)(F)F (single isomer, unassigned) [Example T534, 4-(3-chloro-4-(9-(2-methyl-3-(trifluoromethyl)benzyl)-6-(1-methylcyclopropoxy)-9H-purin-8-yl)phenoxy)-2-methylbutanoic acid]
[2]
  IC50: 3160 nM

## Cc1ccnc(Cn2c(-c3ccc(OC4CCc5nccn5C4)cc3Cl)nc3c(OC4(C)CC4)ncnc32)c1 (single isomer, unassigned) [Example T536, 8-(2-chloro-4-((5,6,7,8-tetrahydroimidazo[1,2-a]pyridin-6-yl)oxy)phenyl)-6-(1-methylcyclopropoxy)-9-((4-methylpyridin-2-yl)methyl)-9H-purine]
[2]
  IC50: 501 nM

## CC(CCOc1ccc(-c2nc3c(OC4(C)CC4)ncnc3n2Cc2cccc(C(C)(F)F)c2)c(Cl)c1)C(=O)O (single isomer, unassigned) [Example T545, 4-(3-chloro-4-(9-(3-(1,1-difluoroethyl)benzyl)-6-(1-methylcyclopropoxy)-9H-purin-8-yl)phenoxy)-2-methylbutanoic acid]
[2]
  IC50: 1000 nM

## Cc1ccc(C)c(Cn2c(-c3ccc(OCCC(C)C(=O)O)cc3Cl)nc3c(OC4(C)CC4)ncnc32)c1 (single isomer, unassigned) [Example T572, 4-(3-chloro-4-(9-(2,5-dimethylbenzyl)-6-(1-methylcyclopropoxy)-9H-purin-8-yl)phenoxy)-2-methylbutanoic acid]
[2]
  IC50: 631 nM

## Cc1ccc(C)c(Cn2c(-c3ccc(OCCC(C)C(=O)O)cc3Cl)nc3c(OC4(C)CC4)ncnc32)c1 (single isomer, unassigned) [Example T573, 4-(3-chloro-4-(9-(2,5-dimethylbenzyl)-6-(1-methylcyclopropoxy)-9H-purin-8-yl)phenoxy)-2-methylbutanoic acid]
[3]
  IC50: 501 nM

## CC(CCOc1ccc(-c2nc3c(OC4(C)CC4)ncnc3n2Cc2ccccc2C2CC2)c(Cl)c1)C(=O)O (single isomer, unassigned) [Example T599, 4-(3-chloro-4-(9-(2-cyclopropylbenzyl)-6-(1-methylcyclopropoxy)-9H-purin-8-yl)phenoxy)-2-methylbutanoic acid]
[3]
  IC50: 631 nM

## CC(CCOc1ccc(-c2nc3c(OC4(C)CC4)ncnc3n2Cc2ccccc2C2CC2)c(Cl)c1)C(=O)O (single isomer, unassigned) [Example T600, 4-(3-chloro-4-(9-(2-cyclopropylbenzyl)-6-(1-methylcyclopropoxy)-9H-purin-8-yl)phenoxy)-2-methylbutanoic acid]
DLD-1 BRCA2-/-
  POLQ PD Prolif Lumin: 6.3

## CC(COc1cccc(-c2nc3c(OC4(C)CC4)ncnc3n2Cc2cc(Cl)ccc2F)c1Cl)CC(=O)O (single isomer, unassigned) [Example U33, 4-(2-chloro-3-(9-(5-chloro-2-fluorobenzyl)-6-(1-methylcyclopropoxy)-9H-purin-8-yl)phenoxy)-3-methylbutanoic acid]
DLD-1, DLD-1 BRCA2 −/−, mean, read-out: POLQ PD Prolif Lumin BRCA2 −/− mean pIC50 (converted)
  IC50: 15.8 nM

## CC(COc1cccc(-c2nc3c(OC4(C)CC4)ncnc3n2Cc2cc(Cl)ccc2F)c1Cl)CC(=O)O (single isomer, unassigned) [Example U34, 4-(2-chloro-3-(9-(5-chloro-2-fluorobenzyl)-6-(1-methylcyclopropoxy)-9H-purin-8-yl)phenoxy)-3-methylbutanoic acid]
DLD-1 BRCA2 −/−, mean
  POLQ PD Prolif Lumin BRCA2 −/− mean pIC50: 7.5

## COc1ccc(F)cc1Cn1c(-c2cccc(OCC(C)CC(=O)O)c2Cl)nc2c(OC3(C)CC3)ncnc21 (single isomer, unassigned) [Example U80, 4-(2-chloro-3-(9-(5-fluoro-2-methoxybenzyl)-6-(1-methylcyclopropoxy)-9H-purin-8-yl)phenoxy)-3-methylbutanoic acid]
DLD-1 BRCA2 −/−, mean
  POLQ PD Prolif Lumin BRCA2 −/− mean pIC50: 8

## CC1NCCN(CCOc2ccc(-c3nc4c(OC5(C)CC5)ncnc4n3Cc3ccccc3)c(Cl)c2)C1=O (single isomer, unassigned; isomer 1) [Example R13, 1-(2-(4-(9-benzyl-6-(1-methylcyclopropoxy)-9H-purin-8-yl)-3-chlorophenoxy)ethyl)-3-methylpiperazin-2-one (Isomer 1)]
[4]
  IC50: 200 nM

## CC1NCCN(CCOc2ccc(-c3nc4c(OC5(C)CC5)ncnc4n3Cc3ccccc3)c(Cl)c2)C1=O (single isomer, unassigned; isomer 2) [Example R14, 1-(2-(4-(9-benzyl-6-(1-methylcyclopropoxy)-9H-purin-8-yl)-3-chlorophenoxy)ethyl)-3-methylpiperazin-2-one (Isomer 2)]
DLD-1 BRCA2−/− cells, 12 days
  POLQ PD Prolif Lumin BRCA2 −/− mean pIC50: 6.8

## CC1(Oc2ncnc3c2nc(-c2ccc(OCCNC(=O)CO)cc2Cl)n3Cc2ccccc2)CC1 [Example D26, N-(2-(4-(9-benzyl-6-(1-methylcyclopropoxy)-9H-purin-8-yl)-3-chlorophenoxy)ethyl)-2-hydroxyacetamide]
[4]
  IC50: 100 nM

## CC1(Oc2ncnc3c2nc(-c2ccc(OCCN4CCNCC4)cc2Cl)n3CCc2ccncc2)CC1 [Example L1, 8-(2-chloro-4-(2-(piperazin-1-yl)ethoxy)phenyl)-6-(1-methylcyclopropoxy)-9-(2-(pyridin-4-yl)ethyl)-9H-purine]
[4]
  IC50: > 10000 nM

## CC1(Oc2ncnc3c2nc(-c2ccc(OCCN4CCNC(C)(C)C4=O)cc2Cl)n3Cc2ccccc2)CC1 [Example R16, 1-(2-(4-(9-benzyl-6-(1-methylcyclopropoxy)-9H-purin-8-yl)-3-chlorophenoxy)ethyl)-3,3-dimethylpiperazin-2-one]
[4]
  IC50: 63.1 nM
